{"source": "patent US10597388B2", "about": "“Pyridazinone herbicides” (FMC CORPORATION, priority 2014, dated 2020)", "test_in_all_cases": "Test E greenhouse herbicide test, pre- and postemergence", "assay_type_in_all_cases": "in vivo", "conditions_in_all_cases": "Preemergence", "key": {"[1]": {"test_system": "dayflower (Virginia (VA) dayflower, Commelina virginica)", "method_in_brief": "(§1)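 Compounds in a non-phytotoxic solvent mixture with surfactant were applied preemergence to seeds in silt loam soil and postemergence to 2-18 cm plants (1- to 4-leaf stage) in peat-based medium. After 14 to 21 d in a greenhouse, injury was rated visually against untreated controls on a 0 (no effect) to 100 (complete control) scale.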"}, "[2]": {"test_system": "nightshade (eastern black nightshade, Solanum ptycanthum)", "method_in_brief": "as §1"}, "corn (Zea mays)": {"test_system": "corn (Zea mays)", "method_in_brief": "as §1"}, "[3]": {"test_system": "Italian ryegrass (Lolium multiflorum)", "method_in_brief": "as §1"}, "[4]": {"test_system": "barnyardgrass (Echinochloa crus-galli)", "method_in_brief": "as §1"}, "[5]": {"test_system": "field bindweed (Convolvulus arvensis)", "method_in_brief": "as §1"}, "[6]": {"test_system": "momingglory (Ipomoea coccinea)", "method_in_brief": "as §1"}, "[7]": {"test_system": "goosegrass (Eleusine indica)", "method_in_brief": "as §1"}, "[8]": {"test_system": "surinam grass (Brachiaria decumbens)", "method_in_brief": "as §1"}, "[9]": {"test_system": "panicum, fall (fall panicum, Panicum dichotomiflorum)", "method_in_brief": "as §1"}, "[10]": {"test_system": "beggarticks (hairy beggarticks, Bidens pilosa)", "method_in_brief": "as §1"}, "[11]": {"test_system": "crabgrass, large (large crabgrass, Digitaria sanguinalis)", "method_in_brief": "as §1"}, "[12]": {"conditions": "62 g ai/ha, scale 0 to 100 (0 no effect, 100 complete control)"}, "[13]": {"conditions": "31 g ai/ha, scale 0 to 100, 0 no effect, 100 complete control"}, "[14]": {"conditions": "125 g ai/ha, visual, scale 0 no effect to 100 complete control"}, "[15]": {"conditions": "250 g ai/ha, visual, scale 0 no effect to 100 complete control"}, "[16]": {"conditions": "125 g ai/ha, scale 0 to 100 (0 no effect, 100 complete control)"}}, "data": [{"smiles": "CC(=O)Oc1c(C)nn(C)c(=O)c1-c1c(C)sc2c(C)cc(C)cc12", "note": "[Compound 27]", "values": [{"measurement": "Plant response rating, Dayflower, VA", "setting": "[1]; [12]", "value": 10}, {"measurement": "Plant response rating, Dayflower, VA", "setting": "[1]; [13]", "value": 0}, {"measurement": "Plant response rating, Dayflower, VA", "setting": "[1]; [14]", "value": 30}, {"measurement": "Plant response rating, Dayflower, VA", "setting": "[1]; [15]", "value": 65}, {"measurement": "Plant response rating, Nightshade", "setting": "[2]; [12]", "value": 100}, {"measurement": "Plant response rating, Nightshade", "setting": "[2]; [16]", "value": 95}, {"measurement": "Plant response rating, Nightshade", "setting": "[2]; [13]", "value": 90}, {"measurement": "Plant response rating, Nightshade", "setting": "[2]; [15]", "value": 98}, {"measurement": "Plant response rating, Corn", "setting": "corn (Zea mays); [12]", "value": 0}, {"measurement": "Plant response rating, Corn", "setting": "corn (Zea mays); [13]", "value": 0}, {"measurement": "Plant response rating, Corn", "setting": "corn (Zea mays); [14]", "value": 0}, {"measurement": "Plant response rating, Corn", "setting": "corn (Zea mays); [15]", "value": 0}, {"measurement": "Plant response rating, Ryegrass, Italian", "setting": "[3]; [12]", "value": 95}, {"measurement": "Plant response rating, Ryegrass, Italian", "setting": "[3]; [16]", "value": 100}, {"measurement": "Plant response rating, Ryegrass, Italian", "setting": "[3]; [13]", "value": 80}, {"measurement": "Plant response rating, Ryegrass, Italian", "setting": "[3]; [15]", "value": 100}, {"measurement": "Plant response rating, Barnyardgrass", "setting": "[4]; [12]", "value": 50}, {"measurement": "Plant response rating, Barnyardgrass", "setting": "[4]; [13]", "value": 15}, {"measurement": "Plant response rating, Barnyardgrass", "setting": "[4]; [14]", "value": 80}, {"measurement": "Plant response rating, Barnyardgrass", "setting": "[4]; [15]", "value": 95}, {"measurement": "Plant response rating, Field Bindweed", "setting": "[5]; [12]", "value": 40}, {"measurement": "Plant response rating, Field Bindweed", "setting": "[5]; [13]", "value": 0}, {"measurement": "Plant response rating, Field Bindweed", "setting": "[5]; [14]", "value": 70}, {"measurement": "Plant response rating, Field Bindweed", "setting": "[5]; [15]", "value": 70}, {"measurement": "Plant response rating, Morningglory", "setting": "[6]; [12]", "value": 85}, {"measurement": "Plant response rating, Morningglory", "setting": "[6]; [16]", "value": 90}, {"measurement": "Plant response rating, Morningglory", "setting": "[6]; [13]", "value": 85}, {"measurement": "Plant response rating, Morningglory", "setting": "[6]; [15]", "value": 100}, {"measurement": "Plant response rating, Goosegrass", "setting": "[7]; [12]", "value": 75}, {"measurement": "Plant response rating, Goosegrass", "setting": "[7]; [13]", "value": 35}, {"measurement": "Plant response rating, Goosegrass", "setting": "[7]; [14]", "value": 80}, {"measurement": "Plant response rating, Goosegrass", "setting": "[7]; [15]", "value": 85}, {"measurement": "Plant response rating, Surinam Grass", "setting": "[8]; [12]", "value": 95}, {"measurement": "Plant response rating, Surinam Grass", "setting": "[8]; [16]", "value": 100}, {"measurement": "Plant response rating, Surinam Grass", "setting": "[8]; [13]", "value": 85}, {"measurement": "Plant response rating, Surinam Grass", "setting": "[8]; [15]", "value": 100}, {"measurement": "Plant response rating, Panicum, Fall", "setting": "[9]; [12]", "value": 100}, {"measurement": "Plant response rating, Panicum, Fall", "setting": "[9]; [16]", "value": 100}, {"measurement": "Plant response rating, Panicum, Fall", "setting": "[9]; [13]", "value": 100}, {"measurement": "Plant response rating, Panicum, Fall", "setting": "[9]; [15]", "value": 100}, {"measurement": "Plant response rating, Beggarticks", "setting": "[10]; [12]", "value": 100}, {"measurement": "Plant response rating, Beggarticks", "setting": "[10]; [13]", "value": 90}, {"measurement": "Plant response rating, Beggarticks", "setting": "[10]; [14]", "value": 100}, {"measurement": "Plant response rating, Beggarticks", "setting": "[10]; [15]", "value": 100}, {"measurement": "Plant response rating, Crabgrass, Large", "setting": "[11]; [12]", "value": 50}, {"measurement": "Plant response rating, Crabgrass, Large", "setting": "[11]; [13]", "value": 35}, {"measurement": "Plant response rating, Crabgrass, Large", "setting": "[11]; [14]", "value": 50}, {"measurement": "Plant response rating, Crabgrass, Large", "setting": "[11]; [15]", "value": 90}]}, {"smiles": "Cc1ccc2ccccc2c1-c1c(O)c(C)nn(C)c1=O", "note": "[Compound 59]", "values": [{"measurement": "Plant response rating, Dayflower, VA", "setting": "[1]; [12]", "value": 40}, {"measurement": "Plant response rating, Dayflower, VA", "setting": "[1]; [13]", "value": 10}, {"measurement": "Plant response rating, Dayflower, VA", "setting": "[1]; [14]", "value": 80}, {"measurement": "Plant response rating, Dayflower, VA", "setting": "[1]; [15]", "value": 80}, {"measurement": "Plant response rating, Corn", "setting": "corn (Zea mays); [12]", "value": 0}, {"measurement": "Plant response rating, Corn", "setting": "corn (Zea mays); [13]", "value": 0}, {"measurement": "Plant response rating, Corn", "setting": "corn (Zea mays); [14]", "value": 0}, {"measurement": "Plant response rating, Corn", "setting": "corn (Zea mays); [15]", "value": 20}, {"measurement": "Plant response rating, Ryegrass, Italian", "setting": "[3]; [12]", "value": 100}, {"measurement": "Plant response rating, Ryegrass, Italian", "setting": "[3]; [16]", "value": 100}, {"measurement": "Plant response rating, Ryegrass, Italian", "setting": "[3]; [13]", "value": 100}, {"measurement": "Plant response rating, Ryegrass, Italian", "setting": "[3]; [15]", "value": 100}, {"measurement": "Plant response rating, Barnyardgrass", "setting": "[4]; [12]", "value": 25}, {"measurement": "Plant response rating, Barnyardgrass", "setting": "[4]; [13]", "value": 0}, {"measurement": "Plant response rating, Barnyardgrass", "setting": "[4]; [14]", "value": 60}, {"measurement": "Plant response rating, Barnyardgrass", "setting": "[4]; [15]", "value": 90}, {"measurement": "Plant response rating, Field Bindweed", "setting": "[5]; [12]", "value": 75}, {"measurement": "Plant response rating, Field Bindweed", "setting": "[5]; [13]", "value": 65}, {"measurement": "Plant response rating, Field Bindweed", "setting": "[5]; [14]", "value": 95}, {"measurement": "Plant response rating, Field Bindweed", "setting": "[5]; [15]", "value": 95}, {"measurement": "Plant response rating, Morningglory", "setting": "[6]; [12]", "value": 95}, {"measurement": "Plant response rating, Morningglory", "setting": "[6]; [16]", "value": 98}, {"measurement": "Plant response rating, Morningglory", "setting": "[6]; [13]", "value": 75}, {"measurement": "Plant response rating, Morningglory", "setting": "[6]; [15]", "value": 100}, {"measurement": "Plant response rating, Goosegrass", "setting": "[7]; [12]", "value": 95}, {"measurement": "Plant response rating, Goosegrass", "setting": "[7]; [13]", "value": 90}, {"measurement": "Plant response rating, Goosegrass", "setting": "[7]; [14]", "value": 98}, {"measurement": "Plant response rating, Goosegrass", "setting": "[7]; [15]", "value": 98}, {"measurement": "Plant response rating, Surinam Grass", "setting": "[8]; [12]", "value": 90}, {"measurement": "Plant response rating, Surinam Grass", "setting": "[8]; [16]", "value": 100}, {"measurement": "Plant response rating, Surinam Grass", "setting": "[8]; [13]", "value": 85}, {"measurement": "Plant response rating, Surinam Grass", "setting": "[8]; [15]", "value": 100}, {"measurement": "Plant response rating, Panicum, Fall", "setting": "[9]; [12]", "value": 98}, {"measurement": "Plant response rating, Panicum, Fall", "setting": "[9]; [16]", "value": 100}, {"measurement": "Plant response rating, Panicum, Fall", "setting": "[9]; [13]", "value": 95}, {"measurement": "Plant response rating, Panicum, Fall", "setting": "[9]; [15]", "value": 100}, {"measurement": "Plant response rating, Beggarticks", "setting": "[10]; [12]", "value": 100}, {"measurement": "Plant response rating, Beggarticks", "setting": "[10]; [13]", "value": 100}, {"measurement": "Plant response rating, Beggarticks", "setting": "[10]; [14]", "value": 100}, {"measurement": "Plant response rating, Beggarticks", "setting": "[10]; [15]", "value": 100}, {"measurement": "Plant response rating, Crabgrass, Large", "setting": "[11]; [12]", "value": 50}, {"measurement": "Plant response rating, Crabgrass, Large", "setting": "[11]; [13]", "value": 0}, {"measurement": "Plant response rating, Crabgrass, Large", "setting": "[11]; [14]", "value": 80}, {"measurement": "Plant response rating, Crabgrass, Large", "setting": "[11]; [15]", "value": 95}]}]}
